PubChem BioAssay AID1259407 (Chemical Carcinogenesis Research Information System (CCRIS), 2018)
Activity calls are given as the source filed them. How the calls were made is not given here.

Test system: CCRIS mutagenicity, Ames/micronucleus/aberration tests
Experiment: CCRIS mutagenicity studies
[1] = Test System: AMES SALMONELLA TYPHIMURIUM, Strain/Indicator: TA98, Metabolic Activation: NONE, Method: PREINCUBATION
[2] = Test System: AMES SALMONELLA TYPHIMURIUM, Strain/Indicator: TA100, Metabolic Activation: NONE, Method: PREINCUBATION
[3] = Test System: AMES SALMONELLA TYPHIMURIUM, Strain/Indicator: TA100, Metabolic Activation: RAT, LIVER, S-9, AROCLOR 1254, Method: PREINCUBATION
[4] = Test System: AMES SALMONELLA TYPHIMURIUM, Strain/Indicator: TA98, Metabolic Activation: HAMSTER, LIVER, S-9, AROCLOR 1254 (30%), Method: PREINCUBATION
[5] = Test System: AMES SALMONELLA TYPHIMURIUM, Strain/Indicator: TA100, Metabolic Activation: HAMSTER, LIVER, S-9, AROCLOR 1254 (30%), Method: PREINCUBATION

## CC(=O)Nc1ccc(-c2ccccc2)cc1
Test System: AMES SALMONELLA TYPHIMURIUM, Strain/Indicator: TA98, Metabolic Activation: RAT, LIVER, S-9, KC500 OR PHENOBARBITAL, Method: LIQUID SUSPENSION
  mutagenic call: active; positive
Test System: AMES SALMONELLA TYPHIMURIUM, Strain/Indicator: TA100 (1,8-DNP), Metabolic Activation: MOUSE LIVER S-9, AROCLOR 1254, 10%, Method: PREINCUBATION
  mutagenic call: active; positive
Test System: AMES SALMONELLA TYPHIMURIUM, Strain/Indicator: TA100 (1,8-DNP), Metabolic Activation: RAT LIVER S-9, AROCLOR 1254, 10%, Method: PREINCUBATION
  mutagenic call: active; positive
Test System: AMES SALMONELLA TYPHIMURIUM, Strain/Indicator: TA100, Metabolic Activation: MOUSE LIVER S-9, AROCLOR 1254, 10%, Method: PREINCUBATION
  mutagenic call: active; positive
Test System: AMES SALMONELLA TYPHIMURIUM, Strain/Indicator: TA100, Metabolic Activation: RAT LIVER S-9, AROCLOR 1254, 10%, Method: PREINCUBATION
  mutagenic call: active; positive
Test System: AMES SALMONELLA TYPHIMURIUM, Strain/Indicator: TA100, Metabolic Activation: RAT, LIVER, S-9, KC500 OR PHENOBARBITAL, Method: LIQUID SUSPENSION
  mutagenic call: active; positive
Test System: AMES SALMONELLA TYPHIMURIUM, Strain/Indicator: YG1029, Metabolic Activation: MOUSE LIVER S-9, AROCLOR 1254, 10%, Method: PREINCUBATION
  mutagenic call: active; positive
Test System: AMES SALMONELLA TYPHIMURIUM, Strain/Indicator: YG1029, Metabolic Activation: RAT LIVER S-9, AROCLOR 1254, 10%, Method: PREINCUBATION
  mutagenic call: active; positive

## CCC(=O)OCc1cccc([N+](=O)[O-])c1
[1]
  mutagenic call: inactive; negative
[2]
  mutagenic call: inactive; negative
[3]
  mutagenic call: inactive; negative

## CNc1ccccc1
Test System: AMES SALMONELLA TYPHIMURIUM, Strain/Indicator: TA97, Metabolic Activation: HAMSTER, LIVER, S-9, AROCLOR 1254 (10%), Method: PREINCUBATION
  mutagenic call: inactive; negative
Test System: AMES SALMONELLA TYPHIMURIUM, Strain/Indicator: TA97, Metabolic Activation: HAMSTER, LIVER, S-9, AROCLOR 1254 (30%), Method: PREINCUBATION
  mutagenic call: inactive; negative
Test System: AMES SALMONELLA TYPHIMURIUM, Strain/Indicator: TA97, Metabolic Activation: NONE, Method: PREINCUBATION
  mutagenic call: inactive; negative
Test System: AMES SALMONELLA TYPHIMURIUM, Strain/Indicator: TA97, Metabolic Activation: RAT, LIVER, S-9, AROCLOR 1254 (10%), Method: PREINCUBATION
  mutagenic call: inactive; negative
Test System: AMES SALMONELLA TYPHIMURIUM, Strain/Indicator: TA97, Metabolic Activation: RAT, LIVER, S-9, AROCLOR 1254 (30%), Method: PREINCUBATION
  mutagenic call: inactive; negative
Test System: AMES SALMONELLA TYPHIMURIUM, Strain/Indicator: TA98, Metabolic Activation: HAMSTER, LIVER, S-9, AROCLOR 1254 (10%), Method: PREINCUBATION
  mutagenic call: inactive; negative
[4]
  mutagenic call: inactive; negative
Test System: AMES SALMONELLA TYPHIMURIUM, Strain/Indicator: TA98, Metabolic Activation: HAMSTER, LIVER, S-9, SODIUM PHENOBARBITAL AND 5,6-BENZOFLAVONE, Method: PREINCUBATION
  mutagenic call: inactive; negative
[1]
  mutagenic call: inactive; negative
Test System: AMES SALMONELLA TYPHIMURIUM, Strain/Indicator: TA98, Metabolic Activation: RAT, LIVER, S-9, AROCLOR 1254 (10 OR 30%), Method: PREINCUBATION
  mutagenic call: inactive; negative
Test System: AMES SALMONELLA TYPHIMURIUM, Strain/Indicator: TA100, Metabolic Activation: HAMSTER, LIVER, S-9, AROCLOR 1254 (10%), Method: PREINCUBATION
  mutagenic call: inactive; negative
[5]
  mutagenic call: inactive; negative
Test System: AMES SALMONELLA TYPHIMURIUM, Strain/Indicator: TA100, Metabolic Activation: HAMSTER, LIVER, S-9, SODIUM PHENOBARBITAL AND 5,6-BENZOFLAVONE, Method: PREINCUBATION
  mutagenic call: inactive; negative
[2]
  mutagenic call: inactive; negative
Test System: AMES SALMONELLA TYPHIMURIUM, Strain/Indicator: TA100, Metabolic Activation: RAT, LIVER, S-9, AROCLOR 1254 (10 OR 30%), Method: PREINCUBATION
  mutagenic call: inactive; negative
Test System: AMES SALMONELLA TYPHIMURIUM, Strain/Indicator: TA102, Metabolic Activation: HAMSTER, LIVER, S-9, SODIUM PHENOBARBITAL AND 5,6-BENZOFLAVONE, Method: PREINCUBATION
  mutagenic call: inactive; negative
Test System: AMES SALMONELLA TYPHIMURIUM, Strain/Indicator: TA102, Metabolic Activation: NONE, Method: PREINCUBATION
  mutagenic call: inactive; negative
Test System: AMES SALMONELLA TYPHIMURIUM, Strain/Indicator: TA104, Metabolic Activation: HAMSTER, LIVER, S-9, SODIUM PHENOBARBITAL AND 5,6-BENZOFLAVONE, Method: PREINCUBATION
  mutagenic call: inactive; negative
Test System: AMES SALMONELLA TYPHIMURIUM, Strain/Indicator: TA104, Metabolic Activation: NONE, Method: PREINCUBATION
  mutagenic call: inactive; negative
Test System: AMES SALMONELLA TYPHIMURIUM, Strain/Indicator: TA1535, Metabolic Activation: HAMSTER, LIVER, S-9, AROCLOR 1254 (10%), Method: PREINCUBATION
  mutagenic call: inactive; negative
Test System: AMES SALMONELLA TYPHIMURIUM, Strain/Indicator: TA1535, Metabolic Activation: HAMSTER, LIVER, S-9, AROCLOR 1254 (30%), Method: PREINCUBATION
  mutagenic call: inactive; negative
Test System: AMES SALMONELLA TYPHIMURIUM, Strain/Indicator: TA1535, Metabolic Activation: HAMSTER, LIVER, S-9, SODIUM PHENOBARBITAL AND 5,6-BENZOFLAVONE, Method: PREINCUBATION
  mutagenic call: inactive; negative
Test System: AMES SALMONELLA TYPHIMURIUM, Strain/Indicator: TA1535, Metabolic Activation: NONE, Method: PREINCUBATION
  mutagenic call: inactive; negative
Test System: AMES SALMONELLA TYPHIMURIUM, Strain/Indicator: TA1535, Metabolic Activation: RAT, LIVER, S-9, AROCLOR 1254 (10 OR 30%), Method: PREINCUBATION
  mutagenic call: inactive; negative
Test System: AMES SALMONELLA TYPHIMURIUM, Strain/Indicator: TA1537, Metabolic Activation: HAMSTER, LIVER, S-9, SODIUM PHENOBARBITAL AND 5,6-BENZOFLAVONE, Method: PREINCUBATION
  mutagenic call: inactive; negative
Test System: AMES SALMONELLA TYPHIMURIUM, Strain/Indicator: TA1537, Metabolic Activation: NONE, Method: PREINCUBATION
  mutagenic call: inactive; negative
Test System: E. COLI, Strain/Indicator: WP2UVRA/PKM101, Metabolic Activation: HAMSTER, LIVER, S-9, SODIUM PHENOBARBITAL AND 5,6-BENZOFLAVONE, Method: PREINCUBATION
  mutagenic call: inactive; negative
Test System: E. COLI, Strain/Indicator: WP2UVRA/PKM101, Metabolic Activation: NONE, Method: PREINCUBATION
  mutagenic call: inactive; negative
Test System: E. COLI, Strain/Indicator: WP2UVRA, Metabolic Activation: HAMSTER, LIVER, S-9, SODIUM PHENOBARBITAL AND 5,6-BENZOFLAVONE, Method: PREINCUBATION
  mutagenic call: inactive; negative
Test System: E. COLI, Strain/Indicator: WP2UVRA, Metabolic Activation: NONE, Method: PREINCUBATION
  mutagenic call: inactive; negative
Test System: UDS RODENT HEPATOCYTES, Strain/Indicator: THY INCORP (NON-S-PHASE), Metabolic Activation: NONE, Method: AUTORADIOGRAPHY
  mutagenic call: inactive; negative

## CCC(C)COC(=O)/C=C/c1ccc(N=Cc2ccc(OC)cc2)cc1 (stereo not given)
[4]
  mutagenic call: inactive; negative
[1]
  mutagenic call: inactive; negative
Test System: AMES SALMONELLA TYPHIMURIUM, Strain/Indicator: TA98, Metabolic Activation: RAT, LIVER, S-9, AROCLOR 1254 (30%), Method: PREINCUBATION
  mutagenic call: active; positive
[5]
  mutagenic call: active; positive
[2]
  mutagenic call: inactive; negative
Test System: AMES SALMONELLA TYPHIMURIUM, Strain/Indicator: TA100, Metabolic Activation: RAT, LIVER, S-9, AROCLOR 1254 (30%), Method: PREINCUBATION
  mutagenic call: active; positive

## O=[N+]([O-])c1ccccc1CBr
[1]
  mutagenic call: inactive; negative
[2]
  mutagenic call: inactive; negative
[3]
  mutagenic call: inactive; negative

## O=CN(O)c1cccc(Cl)c1
Test System: AMES SALMONELLA TYPHIMURIUM, Strain/Indicator: TA98, Metabolic Activation: NONE, Method: STANDARD PLATE
  mutagenic call: inactive; negative
Test System: AMES SALMONELLA TYPHIMURIUM, Strain/Indicator: TA98, Metabolic Activation: RAT, LIVER, S-9, AROCLOR 1254, Method: STANDARD PLATE
  mutagenic call: inactive; negative
Test System: AMES SALMONELLA TYPHIMURIUM, Strain/Indicator: TA100, Metabolic Activation: NONE, Method: STANDARD PLATE
  mutagenic call: inactive; negative
Test System: AMES SALMONELLA TYPHIMURIUM, Strain/Indicator: TA100, Metabolic Activation: RAT, LIVER, S-9, AROCLOR 1254, Method: STANDARD PLATE
  mutagenic call: inactive; negative
